Data as given in patent publication US9593084B2 (Parion Sciences, Inc., priority 2012, dated 2017).
Marks after values point to notes of the source that are not given here.

Columns and labels:
[1] = Plasma potassium levels in sheep of the MCC study; assay type: in vivo
Protocol: In these studies, adult sheep were restrained and nasally intubated with an endotracheal tube. Aerosolized test articles were administered over 10-15 minutes to sheep. Radiolabeled ^99mTc-sulfur colloid (TSC, 3.1 mg/mL; containing approximately 20 mCi) was then administered at a specified time four or eight hours after test article. The radiolabeled aerosol was administered through the endotracheal tube for about 5 minutes. The sheep were then extubated, and total radioactive counts in the lung were measured every 5 minutes for a 1-hour observation period. The rate of radiolabel clearance from the lung is representative of the MCC rate in the animal. The advantage of this system is that it closely simulates the human lung environment. The model also allows for the collection of simultaneous PK/PD information through plasma and urine sampling over the test period. There are also several techniques to measure the drug concentrations on the airway surface during the MCC measurements. These include the collection of exhaled breath condensates or a filter paper method to obtain ASL via bronchoscopy.
The compound of Comparative Example 1 can be seen on page 15 of US 2005/0080093 and as Compound 2 on page 90 of WO 2008/031048, and as Compound 2 on pages 42-43 of WO 2008/031028. […] In order to evaluate this potential, it is beneficial to have MCC activity in vivo and not cause elevation of plasma potassium at the useful dose. One model to assess this is the sheep MCC model described below.

[2] = tested on: human bronchial epithelial (HBE) cells; experiment: Airway surface liquid drug clearance and metabolism by human airway epithelium; assay type: in vitro ADME
Protocol: The disappearance of 33 from the apical surface and airway epithelial metabolism were assessed in human bronchial epithelial (HBE) cells (Table 3). In these experiments 25 μL of a 25 μM solution of ENaC blocker was added to the apical surface of HBE cells grown at an air/liquid interface, and the drug and metabolite concentration in the apical and basolateral compartment was measured over 2 h by UPLC.
Therefore, the compounds of formula (I) have a longer half-life on mucosal surfaces compared to these know compounds as evidenced by the data shown in Table G. The disappearance of Compound 33 from the apical surface and airway epithelial metabolism were assessed in HBE and compared to Comparative Example 1 (Table H). In these experiments 25 μL of a 25 μM solution of ENaC blocker was added to the apical surface of HBE cells grown at an air/liquid interface, and the drug concentration in the apical and basolateral compartment was measured over 2 h by UPLC.

[3] = tested on: Sheep MCC; experiment: Mucociliary clearance (MCC) studies in sheep; assay type: in vivo
In short: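 MCC read-out: gamma-camera counts over right lung at 5-min intervals for one hour, expressed as 30-min slope, 1-h AUC or maximal clearance. Radiolabelled TSC inhaled 4 or 8 h after nebulized test agent (4 mL, optionally followed by HS) in intubated adult sheep.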

[4] = HBE cells at air/liquid interface, 25 μL of 25 μM apical, mean ± SD
[5] = sheep, aerosol, 0.24 nmol/kg (3 μM), MCC at 4 h post-dose
[6] = sheep, aerosol, 0.24 nmol/kg (3 μM), MCC at 8 h post-dose

N=C(NCCCCc1ccc(C[C@H](N)C(=O)Nc2ccc(CCCN(C[C@H](O)[C@@H](O)[C@H](O)[C@H](O)CO)C[C@H](O)[C@@H](O)[C@H](O)[C@H](O)CO)cc2)c2ccccc12)NC(=O)c1nc(Cl)c(N)nc1N [Compound 33, 3,5-diamino-N—(N-(4-(4-((S)-2-amino-3-(4-(3-(bis((2S,3R,4R,5R)-2,3,4,5,6-pentahydroxyhexyl)amino)propyl)phenylamino)-3-oxopropyl)naphthalen-1-yl)butyl)carbamimidoyl)-6-chloropyrazine-2-carboxamide]
effect on plasma potassium ([1]; sheep of the MCC study, at efficacious dose): free of potassium elevations
Therapeutic Index, times greater renal safety than Comparative Example 1 ([1]; sheep, versus Comparative Example 1): more than 1,000
% of Apical Mass as Metabolites (2 h) [2, 4]: 4%
% on Basolateral Side as Metabolites (2 h) [2, 4]: 32%
fate on the apical side after 2 h incubation ([2]; HBE cells, apical surface, 37° C.): mostly unmetabolized on the apical side
benefit to risk ratio ([3]; sheep MCC model): greater than 1000
effect on MCC compared to vehicle ([3]; sheep, 0.24 nmol/kg (3 μM), 4 h post-dose): enhanced MCC compared to vehicle control
Initial Slope (4.0-4.5 h) ([3]; sheep, 0.240 nmol/kg (30 μM), MCC at 4 h post-dose): 37.5* (4)
AUC (% CI × h) ([3]; sheep, 0.240 nmol/kg, MCC at 4 h post-dose): 17.4* (4) % CI × h
effect of hypertonic saline (HS) on the MCC effect ([3]; sheep, 7% HS dosed immediately following 0.24 nmol/kg, MCC eight hours after combined dosing): HS increased the effect of Compound 33 on MCC
duration of action on MCC vs. vehicle ([3]; sheep, 8 hours post dose): enhanced duration action of MCC vs. vehicle
AUC (% Cl-h) [3, 5]: 17.4* (4) % Cl-h
Initial Slope (4.0-4.5 h) [3, 5]: 37.5* (4)
AUC (% Cl-h) [3, 6]: 11.7* (4) % Cl-h
Initial Slope (8.0-8.5 h) [3, 6]: 25.8* (4)
MCC Highest Submaximal Dose ([3]; sheep, solution concentration given beside the dose): <0.24 nmol/kg (3 μM)
Therapeutic Ratio (Benefit/Risk) ([3]; sheep, top dose without plasma potassium elevation vs MCC highest submaximal dose): >100
